Measured values: US8765959B2, “Piperidine derivatives” (Boehringer Ingelheim International GmbH, priority 2011, dated 2014)
Like-named read-outs stand apart in the source and are kept apart here.

Target: T1, human ACC2 (Homo sapiens, UniProt O00763)
T1 construct: made in house; host or cells: insect cells (baculoviral expression system)
Experiment: ACC2 assay, spectrophotometric 384 well assay (NADH-linked, coupled lactate dehydrogenase/pyruvate kinase)
Assay type: biochemical
Protocol: Spectrophotometric 384 Well Assay
Malonyl CoA formation by acetyl CoA carboxylases is stoichometrically linked to the consumption of ATP. ACC2 activity is measured in a NADH-linked kinetic method measuring ADP generated during the ACC reaction using a coupled lactate dehydrogenase/pyruvate kinase reaction.
For biological testing, a human ACC2 construct which lacks the 128 amino acids at the N-terminus for increased solubility (nt 385-6966 in Genbank entry AJ575592) is cloned. The protein is then expressed in insect cells using a baculoviral expression system. Protein purification is performed by anion exchange.
All compounds are dissolved in dimethyl sulfoxide (DMSO) to a concentration of 10 mM.
Assay reactions are then carried out in 384-well plates, with hACC2 in an appropriate dilution and at final assay concentrations (f.c.) of 100 mM Tris (pH 7.5), 10 mM trisodium citrate, 25 mM KHCO3, 10 mM MgCl2, 0.5 mg/ml BSA, 3.75 mM reduced L-glutathione, 15 U/ml lactate dehydrogenase, 0.5 mM phosphoenolpyruvate, 15 U/ml pyruvate kinase, compounds at different concentrations at final DMSO concentrations of 1%.
The enzymatic reaction is then started by addition of a mixture of NADH, acetyl Coenzyme A (both 200 μM f.c.) and ATP (500 uM f.c.). The decrease of the optical density (slope S) is then determined at 25° C. at a wavelength of 340 nm over 15 minutes in a spectrophotometric reader.
Each assay microtiter plate contains wells with vehicle instead of compound as controls for the non-inhibited enzyme (100% CTL; ‘HIGH’) and wells without acetyl-CoA as controls for non-specific NADH degradation (0% CTL; ‘LOW’).
The slope S is used for calculation of % CTL=(S(compound)−S(‘LOW’))/(S(‘HIGH’)−S(‘LOW’))*100. Compounds will give values between 100% CTL (no inhibition) and 0% CTL (complete inhibition).
For IC50 value determination, the sample slope in the presence of the test compound after subtraction of the low controls (S(compound)−S(‘LOW’)) are used.
An IC50 value is derived from the compound slopes at different dosages after subtraction of the low controls (S(compound)−S(‘LOW’)) by non-linear regression curve fitting (equation y=(A+((B−A)/(1+((C/x)^D))))).

[1] = ACC2 assay, human ACC2 construct lacking 128 N-terminal amino acids, 25° C., 340 nm, 15 minutes, read-out: IC50

T1 sequence (O00763 129-2458 limits assumed): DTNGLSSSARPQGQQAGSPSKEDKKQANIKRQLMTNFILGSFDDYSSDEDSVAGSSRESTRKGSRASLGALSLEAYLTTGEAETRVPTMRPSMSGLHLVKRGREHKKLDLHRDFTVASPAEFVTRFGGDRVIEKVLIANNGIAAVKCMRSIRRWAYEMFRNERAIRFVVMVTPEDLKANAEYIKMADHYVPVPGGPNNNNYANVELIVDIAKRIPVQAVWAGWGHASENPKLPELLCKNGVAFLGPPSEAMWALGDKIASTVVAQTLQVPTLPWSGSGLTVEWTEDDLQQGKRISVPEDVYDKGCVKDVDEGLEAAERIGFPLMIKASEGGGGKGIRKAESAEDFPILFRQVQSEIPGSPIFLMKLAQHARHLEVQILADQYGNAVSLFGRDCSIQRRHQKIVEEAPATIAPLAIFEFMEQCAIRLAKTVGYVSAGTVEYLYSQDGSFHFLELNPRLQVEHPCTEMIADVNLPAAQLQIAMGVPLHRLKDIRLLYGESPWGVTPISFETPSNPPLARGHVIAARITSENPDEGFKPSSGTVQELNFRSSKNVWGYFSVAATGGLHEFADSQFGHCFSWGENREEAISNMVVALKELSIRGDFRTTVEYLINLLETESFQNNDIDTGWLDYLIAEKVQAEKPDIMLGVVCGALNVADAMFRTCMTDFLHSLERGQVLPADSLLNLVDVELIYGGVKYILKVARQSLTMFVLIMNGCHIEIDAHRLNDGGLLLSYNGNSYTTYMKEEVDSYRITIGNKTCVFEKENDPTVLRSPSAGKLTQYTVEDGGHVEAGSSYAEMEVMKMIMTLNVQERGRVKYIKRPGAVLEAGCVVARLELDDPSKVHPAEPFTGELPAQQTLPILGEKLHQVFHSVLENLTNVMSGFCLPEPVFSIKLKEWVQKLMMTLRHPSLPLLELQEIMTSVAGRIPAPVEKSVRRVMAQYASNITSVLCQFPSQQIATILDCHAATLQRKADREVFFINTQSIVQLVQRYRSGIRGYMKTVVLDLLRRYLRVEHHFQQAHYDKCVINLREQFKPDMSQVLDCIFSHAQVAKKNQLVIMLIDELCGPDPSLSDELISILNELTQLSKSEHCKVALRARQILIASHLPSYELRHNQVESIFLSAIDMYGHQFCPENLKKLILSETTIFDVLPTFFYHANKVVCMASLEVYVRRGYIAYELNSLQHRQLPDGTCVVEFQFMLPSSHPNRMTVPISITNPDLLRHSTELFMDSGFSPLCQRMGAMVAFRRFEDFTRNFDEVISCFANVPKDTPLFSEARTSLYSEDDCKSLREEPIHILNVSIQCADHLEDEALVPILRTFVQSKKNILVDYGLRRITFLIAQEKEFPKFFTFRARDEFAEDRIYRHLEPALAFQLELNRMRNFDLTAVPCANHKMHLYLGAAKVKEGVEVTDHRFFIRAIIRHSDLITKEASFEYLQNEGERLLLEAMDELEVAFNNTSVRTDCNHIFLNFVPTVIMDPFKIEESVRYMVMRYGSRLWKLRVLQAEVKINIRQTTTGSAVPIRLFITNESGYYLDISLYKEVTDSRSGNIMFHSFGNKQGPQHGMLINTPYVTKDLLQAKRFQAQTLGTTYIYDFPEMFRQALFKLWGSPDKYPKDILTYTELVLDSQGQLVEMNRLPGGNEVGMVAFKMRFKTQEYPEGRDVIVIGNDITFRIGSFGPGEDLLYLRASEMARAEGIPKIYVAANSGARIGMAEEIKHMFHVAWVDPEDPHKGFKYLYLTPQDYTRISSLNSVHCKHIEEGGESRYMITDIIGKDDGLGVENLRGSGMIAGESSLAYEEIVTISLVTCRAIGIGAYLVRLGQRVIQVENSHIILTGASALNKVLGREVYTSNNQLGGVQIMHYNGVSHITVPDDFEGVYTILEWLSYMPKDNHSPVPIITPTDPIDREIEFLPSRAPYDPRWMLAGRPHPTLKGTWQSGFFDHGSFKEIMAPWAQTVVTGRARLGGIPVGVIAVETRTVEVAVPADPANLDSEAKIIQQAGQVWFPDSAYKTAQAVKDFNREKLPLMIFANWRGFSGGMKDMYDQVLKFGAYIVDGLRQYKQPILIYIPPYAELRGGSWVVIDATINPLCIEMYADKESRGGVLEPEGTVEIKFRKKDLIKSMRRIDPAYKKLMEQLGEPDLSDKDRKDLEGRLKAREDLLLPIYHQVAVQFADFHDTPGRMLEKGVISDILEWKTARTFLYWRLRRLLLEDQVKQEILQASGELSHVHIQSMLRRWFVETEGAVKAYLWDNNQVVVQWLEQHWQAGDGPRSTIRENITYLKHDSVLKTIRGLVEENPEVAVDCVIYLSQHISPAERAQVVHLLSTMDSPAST

SMILES	IC50 [1]	IC50
CCOc1ccc(C2CCN(c3ccc([C@H](C)NC(=O)N(C)C)cc3)CC2)cc1 [Example 1.17]	820 nM	–
CCCOc1ccc(C2CCN(c3ccc(C(C)NC(C)=O)cc3F)CC2)cc1 (stereo not shown) [Example 1.32]	230 nM	–
CC(=O)N[C@@H](C)c1ccc(N2CCC(c3ccc(OC4CCC4)cc3)CC2)cc1 [Example 1.4]	230 nM	–
CCOc1ccc(C2CCN(c3ccc([C@H](C)NC(=O)C4CC4)cc3)CC2)cc1 [Example 1.8]	680 nM	–
CC(=O)N[C@@H](C)c1ccc(N2CCC(c3cccc(OC(C)C)c3)CC2)cc1 [Example 1.25]	370 nM	–
CC(=O)N[C@@H](C)c1ccc(N2CCC(c3cccc(OCC4CC4)c3)CC2)cc1 [Example 1.5]	880 nM	–
COc1cc(C(C)NC(C)=O)ccc1N1CCC(c2ccc(OC3CCC3)cc2)CC1 (stereo not shown) [Example 1.51]	4410 nM	–
CCOc1ccc(C2CCN(c3ccc(CC(C)NC(C)=O)cc3)CC2)cc1 (stereo not shown) [Example 1.60]	1220 nM	–
COc1ccc(C2CCN(c3ccc([C@H](C)NC(C)=O)cc3)CC2)cc1 [Example 1.27]	2160 nM	–
CCCOc1ccc(C2CCN(c3ccc([C@H](C)NC(=O)N(C)C)cc3)CC2)cc1 [Example 1.26]	340 nM	–
CCOc1ccc(C2CCN(c3ccc(CCC(C)NC(C)=O)cc3)CC2)cc1 (stereo not shown) [Example 1.70]	8470 nM	–
CCOc1ccc(C2CCN(c3ccc([C@H](C)NC(=O)N(CC)CC)cc3)CC2)cc1 [Example 4.4]	3690 nM	–
CCCOc1cccc(C2CCN(c3ccc([C@H](C)NC(C)=O)cc3)CC2)c1 [Example 1.20]	660 nM	–
CC(C)Oc1ccc(C2CCN(c3ccc([C@H](C)NC(=O)C4CC4)cc3)CC2)cc1 [Example 1.10]	800 nM	–
CCOc1ccc(C2CCN(c3ccc([C@H](C)NC(=O)CF)cc3)CC2)cc1 [Example 3.8]	–	440 nM
CCOc1ccc(C2CCN(c3ccc([C@H](C)NC(=O)N4CCOCC4)cc3)CC2)cc1 [Example 4.3]	2360 nM	–
CCOc1ccc(C2CCN(c3ccc([C@H](C)NC(=O)C(F)(F)F)cc3)CC2)cc1 [Example 2.6]	110 nM	–
CCOc1ccc(C2CCN(c3ccc([C@H](C)N(C)C(C)=O)cc3)CC2)cc1 [Example 6.1, (S)—N-(1-{4-[4-(4-Ethoxy-phenyl)-piperidin-1-yl]-phenyl}-ethyl)-N-methyl-acetamide]	3430 nM	–
CCOc1cccc(C2CCN(c3ccc(C(C)NC(C)=O)c(F)c3)CC2)c1 (stereo not shown) [Example 1.41]	1270 nM	–
CCCOc1ccc(C2CCN(c3ccc([C@H](C)NC(=O)C4CC4)cc3)CC2)cc1 [Example 1.21]	640 nM	–
COc1ccc(C2CCN(c3ccc(CC(C)NC(C)=O)cc3)CC2)cc1 (stereo not shown) [Example 1.61]	4470 nM	–

SMILES	IC50 [1]	IC50
CC(=O)NC(C)c1ccc(N2CCC(c3ccc(OC(C)C)cc3)CC2)cc1F (stereo not shown) [Example 1.46]	370 nM	–
CC(=O)NC(C)c1ccc(N2CCC(c3ccc(OC(C)C)cc3)CC2)c(F)c1 (stereo not shown) [Example 1.33]	460 nM	–
CCOc1ccc(C2CCN(c3ccc([C@H](C)NC(C)=O)cc3)CC2)cc1 [Example 1.2]	150 nM	–
CCOc1ccc(C2CCN(c3ccc([C@H](C)NC(=O)c4coc(NC(C)=O)n4)cc3)CC2)cc1 [Example 3.1, (S)-2-Acetylamino-oxazole-4-carboxylic acid (1-{4-[4-(4-ethoxy-phenyl)-piperidin-1-yl]-phenyl}-ethyl)-amide]	2770 nM	–
CCOc1ccc(C2CCN(c3ccc([C@H](C)NC(=O)c4cncs4)cc3)CC2)cc1 [Example 2.2]	690 nM	–
C[C@H](NC(=O)C1CC1)c1ccc(N2CCC(c3ccc(OC4CCC4)cc3)CC2)cc1 [Example 1.16]	1240 nM	–
C[C@H](NC(=O)N(C)C)c1ccc(N2CCC(c3ccc(OC4CCC4)cc3)CC2)cc1 [Example 1.22]	250 nM	–
CCOc1ccc(C2CCN(c3ccc([C@H](C)NC(=O)COC)cc3)CC2)cc1 [Example 2.5]	6910 nM	–
CCOc1ccc(C2CCN(c3ccc([C@H](C)NC(=O)N(C)CC)cc3)CC2)cc1 [Example 4.1, (S)-3-(1-{4-[4-(4-Ethoxy-phenyl)-piperidin-1-yl]-phenyl}-ethyl)-1-ethyl-1-methyl-urea]	1980 nM	–
CCOc1ccc(C2CCN(c3ccc([C@H](C)NC(=O)c4sc(NC(C)=O)nc4C)cc3)CC2)cc1 [Example 3.6]	200 nM	–
CCOc1ccc(C2CCN(c3ccc([C@H](C)NC(=O)CSC)cc3)CC2)cc1 [Example 2.3]	1210 nM	–
CCOc1ccc(C2CCN(c3ccc([C@H](C)NC(=O)C(F)F)cc3)CC2)cc1 [Example 3.2]	380 nM	–
CC(C)Oc1ccc(C2CCN(c3ccc([C@H](C)NC(=O)N(C)C)cc3)CC2)cc1 [Example 1.9]	610 nM	–
CC(=O)N[C@@H](C)c1ccc(N2CCC(c3ccc(OCC4CC4(F)F)cc3)CC2)cc1 (stereo partly shown) [Example 1.7]	90 nM	–
C[C@H](NC(=O)C1CC1)c1ccc(N2CCC(c3ccc(OCC4CC4)cc3)CC2)cc1 [Example 1.15]	1850 nM	–
CCOc1ccc(C2CCN(c3ccc([C@H](C)NC(=O)C4(C#N)CC4)cc3)CC2)cc1 [Example 2.1, (S)-1-Cyano-cyclopropanecarboxylic acid (1-{4-[4-(4-ethoxy-phenyl)-piperidin-1-yl]-phenyl}-ethyl)-amide]	4150 nM	–
CCOc1ccc(C2CCN(c3ccc([C@H](C)NC(=O)C(C)F)cc3)CC2)cc1 (stereo partly shown) [Example 3.3]	760 nM	–
CCOc1ccc(C2CCN(c3ccc([C@H](C)NC(=O)CO)cc3)CC2)cc1 [Example 3.9]	4980 nM	–
CCOc1ccc(C2CCN(c3ccc([C@H](C)NC(=O)OC)cc3)CC2)cc1 [Example 5.1, (S)-(1-{4-[4-(4-Ethoxy-phenyl)-piperidin-1-yl]-phenyl}-ethyl)-carbamic acid methyl ester]	2090 nM	–
CC(=O)NC(C)c1ccc(N2CCC(c3ccc(OCC4CC4)cc3F)CC2)c(F)c1 (stereo not shown) [Example 1.31]	150 nM	–
CCOc1ccc(C2CCN(c3ccc([C@H](C)NC(=O)Cc4cc[nH]c4)cc3)CC2)cc1 [Example 3.4]	4880 nM	–

SMILES	IC50 [1]	IC50
CCOc1ccc(C2CCN(c3ccc([C@H](C)NC(=O)N(C)c4cccnc4)cc3)CC2)cc1 [Example 4.2]	1160 nM	–
CCOc1cc(C2CCN(c3ccc([C@H](C)NC(C)=O)cc3)CC2)ccn1 [Example 1.19]	820 nM	–
CCOc1ccc(C2CCN(c3ccc([C@H](C)NC(C)=O)cc3)CC2)cn1 [Example 1.12]	3170 nM	–
CC(=O)NC(C)c1ccc(N2CCC(c3ccc(OCC4CC4)cc3F)CC2)cc1F (stereo not shown) [Example 1.48]	460 nM	–
CCCOc1ccc(C2CCN(c3ccc([C@H](C)NC(C)=O)cc3)CC2)c(C)c1 [Example 1.3]	50 nM	–
CC(=O)N[C@@H](C)c1ccc(N2CCC(c3cccc(OC4CCC4)c3)CC2)cc1 [Example 1.14]	450 nM	–
CCCOc1ccc(C2CCN(c3ccc([C@H](C)NC(C)=O)cc3)CC2)cc1 [Example 1.1, (S)—N-(1-{4-[4-(4-Propoxy-phenyl)-piperidin-1-yl]-phenyl}-ethyl)-acetamide]	70 nM	–
CCOc1ccc(C2CCN(c3ccc(C(C)NC(C)=O)c(F)c3)CC2)cc1 (stereo not shown) [Example 1.45]	350 nM	–
CCCOc1ccc(C2CCN(c3ccc(C(C)NC(C)=O)c(F)c3)CC2)c(C)c1 (stereo not shown) [Example 1.44]	160 nM	–
CCOc1cccc(C2CCN(c3ccc([C@H](C)NC(C)=O)cc3)CC2)c1 [Example 1.6]	1120 nM	–
CCOc1ccc(C2CCN(c3ccc([C@H](C)NC(=O)C4(C)CC4)cc3)CC2)cc1 [Example 2.7]	520 nM	–
CCOc1ccc(C2CCN(c3ccc([C@H](C)NC(C)=O)cc3)CC2)c(OC)c1 [Example 1.11]	440 nM	–
C[C@H](NC(=O)N(C)C)c1ccc(N2CCC(c3ccc(OCC4CC4)cc3)CC2)cc1 [Example 1.24]	540 nM	–
CCOc1ccc(C2CCN(c3ccc([C@H](C)NC(=O)CC)cc3)CC2)cc1 [Example 2.4]	710 nM	–
CC(=O)NC(C)c1ccc(N2CCC(c3cccc(OC(C)C)c3)CC2)cc1F (stereo not shown) [Example 1.42]	1260 nM	–
CCOc1ccc(C2CCN(c3ccc([C@H](C)NC(=O)c4csc(NC(C)=O)n4)cc3)CC2)cc1 [Example 3.7]	1480 nM	–
CC(=O)NC(C)c1ccc(N2CCC(c3cccc(OC4CCC4)c3)CC2)cc1F (stereo not shown) [Example 1.47]	430 nM	–
CCOc1ccc(C2CCN(c3ccc([C@H](C)NC(=O)c4cncc(NC(C)=O)c4)cc3)CC2)cc1 [Example 3.5]	4530 nM	–
CCCOc1ccc(C2CCN(c3ccc(C(C)NC(C)=O)cc3OC)CC2)cc1 (stereo not shown) [Example 1.52]	4230 nM	–
